# Assay results taken from patent US5656722A, “A^21 -, B^30 - modified insulin derivatives having an altered action profile” (Hoechst Aktiengesellschaft, priority 1988, dated 1997).
# Columns and labels:
# dogs = experiment: Action profile (blood glucose) of insulin compositions in dogs; assay type: in vivo
# Procedure: D) Action Profile of an Asp^A21 -Human Insulin-Arg^B31 -Arg^B32-OH Composition in dogs by comparison with human insulin-Arg^B31 -Arg^B32 -OH and basal H insulin Hoechst^(R) =an NPH (neutral protamine Hagedorn) composition containing about 10 μg of Zn^2+.
# [1] = pH 4
# Procedure: 18 mg of glycerol, 10 mg of benzyl alcohol, 80 μg of Zn^2+, pH 4.0.
# [2] = measured by isoelectric focusing; cited from earlier work
substance,measurement,setting,value
"human insulin-Arg^B31 -Arg^B32 -OH [Human insulin Arg^B31 --Arg^B32 --OH, reference compound]",Blood glucose as a % of the initial level,dogs; 1 h,77%
same,Blood glucose as a % of the initial level,dogs; 2 h,52%
same,Blood glucose as a % of the initial level,dogs; 3 h,64%
same,Blood glucose as a % of the initial level,dogs; 5 h,85%
same,Blood glucose as a % of the initial level,dogs; 7 h,98%
Asp^A21 -Human Insulin-Arg^B31 -Arg^B32 -OH,Blood glucose as a % of the initial level,dogs; 1 h,99%
same,Blood glucose as a % of the initial level,dogs; 2 h,62%
same,Blood glucose as a % of the initial level,dogs; 3 h,51%
same,Blood glucose as a % of the initial level,dogs; 5 h,75%
same,Blood glucose as a % of the initial level,dogs; 7 h,98%
same,Action profile (basal profile),dogs; compared with human insulin-Arg^B31 -Arg^B32 -OH,same advantageous basal profile as human insulin-Arg^B31 -Arg^B32 -OH
same,Stability,[1],stable for a long time under the chosen conditions
proinsulin: proinsulin,Isoelectric point,[2],5.4 pH
